Results: patent US12398108B2, “Compounds, compositions, and methods for treating diseases” (Drexel University, priority 2017, dated 2025)

Assays:
[1] = administration to a subject in pain; format: in vivo
Description: 1-(2,2-Dimethyl-3-(4-(trifluoromethyl)phenoxy)propyl)-3-(pyrimidin-5-yl)guanidine is administered to a subject in pain. The subject's pain is alleviated.

Sigma1 receptor = Sigma1 receptor (Homo sapiens, UniProt Q99720); assay: binding to Sigma1 receptor
breast cancer = assay: administration to a subject who has breast cancer; format: in vivo
Description: 1-(2,2-Dimethyl-3-(4-(trifluoromethyl)phenoxy)propyl)-3-(pyrimidin-5-yl)guanidine is administered to a subject who has breast cancer. The tumor growth is inhibited and the tumor size is reduced.

Human Androgen Receptor = assay: Indigo Biosciences Human Androgen Receptor Reporter Assay System; format: cell-based
Description: The compound's activity was also measured for its ability to inhibit androgen receptor reporter activity. The assay that was used was Indigo Biosciences Human Androgen Receptor Reporter Assay System. […] Based upon these activities, the compounds are expected to have anti-tumor effects.

Chain of Sigma1 receptor (Q99720 whole entry, species assumed): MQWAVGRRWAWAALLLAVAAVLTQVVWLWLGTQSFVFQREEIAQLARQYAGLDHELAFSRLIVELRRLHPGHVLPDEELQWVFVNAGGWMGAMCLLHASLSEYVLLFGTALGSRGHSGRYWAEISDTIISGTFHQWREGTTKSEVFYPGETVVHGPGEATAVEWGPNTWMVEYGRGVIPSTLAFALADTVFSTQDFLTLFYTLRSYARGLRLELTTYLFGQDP

**Q.** Which results are given for `CC(C)(CNC(=N)Nc1cncnc1)COc1ccc(C(F)(F)F)cc1` [1-(2,2-Dimethyl-3-(4-(trifluoromethyl)phenoxy)propyl)-3-(pyrimidin-5-yl)guanidine]?
**A.** subject's pain [1]: alleviated; binding to Sigma1 receptor (Sigma1 receptor): nanomolar range; tumor growth (breast cancer): inhibited; tumor size (breast cancer): reduced; ability to inhibit androgen receptor reporter activity (Human Androgen Receptor): active
